From patent US8268847B2, “Therapeutic compositions comprising a specific endothelin receptor antagonist and a PDE5 inhibitor” (Actelion Pharmaceuticals, Ltd., priority 2006, dated 2012)
Where “and” joins values, the source holds several entries; their conditions need not be identical. Identical values can stand only once.

Legend:
[1] = test system: Dahl salt-sensitive (Dahl-S) rats; experiment: Dahl salt-sensitive rat model: blood pressure by telemetry, area between curves (ABC); type: in vivo; conditions: oral, 0 to 72 hours
Procedure: Dahl Salt-Sensitive Rat Model
Dahl salt-sensitive (Dahl-S) were purchased from Harlan (Netherlands). The rats were housed by group during the acclimatization period and single-housed after implantation of the telemetry device. All animals were maintained under identical conditions and had free access to normal pelleted rat chow and water. Dahl salt-sensitive rats develop hypertension only upon exposure to salt intake. They were administered a high-salt (8%) chow diet (Purina series 5500). Five weeks after starting salt administration, a telemetry system was implanted under anaesthesia by inhalation of 2.5% isoflurane (in 70% O2+30% N2O). […]
The compounds were administered at least 2 weeks after telemetry system implantation. […] The acute effects of the compound of formula (I), the compound having PDE5-inhibitory properties and their combination on blood pressure were measured by collecting data at 5-minute intervals up to 72 h after oral administration. Hourly means of blood pressure were calculated for each rat. […] The two curves (blood pressure of the control period and blood pressure of the treatment period) were plotted together and the area between curves (ABC) from 0 to 72 hours was calculated. […]

[2] = test system: spontaneously hypertensive rats (SHR); experiment: Spontaneously hypertensive rat model: blood pressure by telemetry, area between curves (ABC); type: in vivo; conditions: oral, 0 to 72 hours
Procedure: The compounds were administered at least 2 weeks after telemetry system implantation. The compound of formula (I) and the compound having PDE5-inhibitory properties were prepared in 5% arabic gum and administered by oral gavage. The acute effects of the compound of formula (I), the compound having PDE5-inhibitory properties and their combination on blood pressure were measured by collecting data at 5-minute intervals up to 72 h after oral administration. Hourly means of blood pressure were calculated for each rat. Each rat served as its own control, by using the blood pressure data of the last 24 hours before drug administration. The two curves (blood pressure of the control period and blood pressure of the treatment period) were plotted together and the area between curves (ABC) from 0 to 72 hours was calculated. The higher the ABC, the stronger the effect of the item tested for lowering blood pressure.
Spontaneously Hypertensive Rat Model
The SHR rats were purchased from Harlan (Netherlands).

For `CCCNS(=O)(=O)Nc1ncnc(OCCOc2ncc(Br)cn2)c1-c1ccc(Br)cc1` [compound of formula (I)], the “area between curves (ABC) of blood pressure, control period vs treatment period” value (from here on “area between curves (ABC) … vs treatment period”) ([1]; 0.3 mg/kg, higher ABC = stronger blood pressure lowering) was 256 and the “area between curves (ABC) … vs treatment period” value ([2]; 0.3 mg/kg) was 44 and 38.
In the case of `CCCc1nn(C)c2c(=O)[nH]c(-c3cc(S(=O)(=O)N4CCN(C)CC4)ccc3OCC)nc12` [sildenafil], the “area between curves (ABC) … vs treatment period” value ([2]; 30 mg/kg) is reported as 229.
In the case of `CN1CC(=O)N2[C@H](c3ccc4c(c3)OCO4)c3[nH]c4ccccc4c3C[C@@H]2C1=O` [tadalafil], the “area between curves (ABC) … vs treatment period” value ([1]; 10 mg/kg) is reported as 310 and the “area between curves (ABC) … vs treatment period” value ([2]; 10 mg/kg) is reported as 286.
